Source: patent US20120115878A1, “SALT(S) OF 7-CYCLOPENTYL-2-(5-PIPERAZIN-1-YL-PYRIDIN-2-YLAMINO)-7H-PYRROLO[2,3-D]PYRIMIDINE-6-CARBOXYLIC ACID DIMETHYLAMIDE AND PROCESSES OF MAKING THEREOF” (priority 2010, published 2012)
Blank lines part the entries; values can stand above or below the compound they belong to.

What was measured:
[1] = Physical form characterization (XRPD) after DVS exposure to 80% RH
[2] = Dynamic Vapor Sorption (DVS) isotherm, 0-90-0% RH cycle, two cycles; format: physicochemical
[3] = Dynamic Vapor Sorption (DVS) isotherm, 0-80-0% RH cycle; format: physicochemical; conditions: for Change In Mass (%) Desorption / Change In Mass (%) Hysteresis: 0-80-0% RH cycle, Cycle 1
[4] = Physical form characterization (XRPD, DSC, TGA) after DVS exposure to 90% RH; format: physicochemical

physical form upon exposure to 80% RH ([1]; XRPD after DVS 0-80-0% RH): stability of the physical form
converted from the non-hydrate form to hydrate form ([1]; at 80% RH): about 0.52%
moisture absorbed ([2]; at 90% RH in each cycle (0 to 90 to 0% RH)): up to 2%
hygroscopic behavior ([2]; at high humidity conditions (90% RH)): slight hygroscopic behavior
Change In Mass (%) Desorption ([3]; target RH 0.0%): 0.0434%
Change In Mass (%) Desorption ([3]; target RH 10.0%): 0.2958%
Change In Mass (%) Hysteresis ([3]; target RH 10.0%): 0.0871%
Change In Mass (%) Desorption ([3]; target RH 20.0%): 0.3436%
Change In Mass (%) Hysteresis ([3]; target RH 20.0%): 0.0708%
Change In Mass (%) Desorption ([3]; target RH 30.0%): 0.3806%
Change In Mass (%) Desorption ([3]; target RH 40.0%): 0.4037%
Change In Mass (%) Hysteresis ([3]; target RH 40.0%): 0.0133%
Change In Mass (%) Desorption ([3]; target RH 50.0%): 0.4311%
Change In Mass (%) Hysteresis ([3]; target RH 50.0%): 0.0074%
Change In Mass (%) Desorption ([3]; target RH 60.0%): 0.4614%
Change In Mass (%) Hysteresis ([3]; target RH 60.0%): 0.0140%
Change In Mass (%) Desorption ([3]; target RH 70.0%): 0.4952%
Change In Mass (%) Hysteresis ([3]; target RH 70.0%): 0.0159%
Change In Mass (%) Desorption ([3]; target RH 80.0%): 0.5200%
moisture absorbed ([3]; at 80% RH (0 to 80 to 0% RH)): up to 0.5%
hygroscopic behavior ([3]; printed 'at 80° C.' (0 to 80 to 0% RH cycle)): nearly non-hygroscopic behavior
physical form upon exposure to 90% RH ([4]; XRPD, DSC, TGA after DVS 0-90-0% RH): change in physical form
weight loss at endothermic transition ([4]; around 100° C., after exposure to 90% RH): 3%
converted from the non-hydrate form to hydrate form ([4]; at 90% RH): about 7.35%
SMILES: CN(C)C(=O)c1cc2cnc(Nc3ccc(N4CCNCC4)cn3)nc2n1C1CCCC1.O=C(O)CCC(=O)O [Compound of Formula (II), 7-Cyclopentyl-N,N-dimethyl-2-(5-(piperazin-1-yl)pyridin-2-ylamino)-7H-pyrrolo[2,3-d]pyrimidine-6-carboxamide succinate]

stability ([1]; general statement): good stability
hygroscopicity ([3]; general statement): non-hygroscopicity
SMILES: CN(C)C(=O)c1cc2cnc(Nc3ccc(N4CCNCC4)cn3)nc2n1C1CCCC1.O=C(O)CCC(=O)O [non-hydrate form, succinate salt of 7-Cyclopentyl-2-(5-piperazin-1-yl-pyridin-2-ylamino)-7H-pyrrolo[2,3-d]pyrimidine-6-carboxylic acid dimethylamide]
